Tested on: 624824-186-R-J3-PDC multicell spheroids, viability
Test: Anticancer human tumor 624824-186-R-J3-PDC patient-derived colon adenocarcinoma cell line growth inhibition [PI3K]
Conditions: for IC50: curve of first compound; for viability, T/C: stronger effect = lower value
Outline: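 Viability of mixed-cell spheroids was determined after exposure to pairwise combinations, one partner being inavolisib, alpelisib, duvelisib or copanlisib. Highest tested concentration matched clinical Cmax where known and 10 microM where not, descending in half-log steps.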

[1] = second compound 0.0316 µM, first compound 0.0316 µM
[2] = second compound 0.0316 µM, first compound 0.1 µM
[3] = second compound 0.0316 µM, first compound 0.316 µM
[4] = second compound 0.0316 µM, first compound 1 µM
[5] = second compound 0.0316 µM, first compound 3.16 µM
[6] = second compound 0.0316 µM, first compound 10 µM
[7] = second compound 0.1 µM, first compound 0.0316 µM
[8] = second compound 0.1 µM, first compound 0.1 µM
[9] = second compound 0.1 µM, first compound 0.316 µM
[10] = second compound 0.1 µM, first compound 1 µM
[11] = second compound 0.1 µM, first compound 3.16 µM
[12] = second compound 0.1 µM, first compound 10 µM
[13] = second compound 0.316 µM, first compound 0.0316 µM
[14] = second compound 0.316 µM, first compound 0.1 µM
[15] = second compound 0.316 µM, first compound 0.316 µM
[16] = second compound 0.316 µM, first compound 1 µM
[17] = second compound 0.316 µM, first compound 3.16 µM
[18] = second compound 0.316 µM, first compound 10 µM
[19] = second compound 1 µM, first compound 0.0316 µM
[20] = second compound 1 µM, first compound 0.1 µM
[21] = second compound 1 µM, first compound 0.316 µM
[22] = second compound 1 µM, first compound 1 µM
[23] = second compound 1 µM, first compound 3.16 µM
[24] = second compound 1 µM, first compound 10 µM
[25] = second compound 3.16 µM, first compound 0.0316 µM
[26] = second compound 3.16 µM, first compound 0.1 µM
[27] = second compound 3.16 µM, first compound 0.316 µM
[28] = second compound 3.16 µM, first compound 1 µM
[29] = second compound 3.16 µM, first compound 3.16 µM
[30] = second compound 3.16 µM, first compound 10 µM
[31] = second compound 10 µM, first compound 0.0316 µM
[32] = second compound 10 µM, first compound 0.1 µM
[33] = second compound 10 µM, first compound 0.316 µM
[34] = second compound 10 µM, first compound 1 µM
[35] = second compound 10 µM, first compound 3.16 µM
[36] = second compound 10 µM, first compound 10 µM
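Note: spheroids exposed to agents for seven days before luminescence read.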
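Throughout, for viability, T/C: luminescent signal used as a stand-in for spheroid viability; percent viability relative to DMSO vehicle control wells taken as 100%.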

With C=CC(=O)N1CCN(c2nc(=O)n(-c3c(C)ccnc3C(C)C)c3nc(-c4c(O)cccc4F)c(F)cc23)C(C)C1 (centres undefined) + CC(Nc1ncnc2nc[nH]c12)c1cc2cccc(Cl)c2c(=O)n1-c1ccccc1 the IC50 (second compound 0.0316 µM) was over 10 µM, the IC50 (second compound 0.1 µM) was over 10 µM and the IC50 (second compound 0.316 µM) was over 10 µM. For the same molecule, the IC50 (second compound 1 µM) was over 10 µM, the IC50 (second compound 3.16 µM) was over 10 µM and the IC50 (second compound 10 µM) was over 10 µM. For the same molecule, the viability, T/C [1] was 125%, the viability, T/C [2] was 96.1% and the viability, T/C [3] was 114%. It also gave a viability, T/C [4] of 102%, a viability, T/C [5] of 113% and a viability, T/C [6] of 121%. It also gave a viability, T/C [7] of 105%, a viability, T/C [8] of 94.6% and a viability, T/C [9] of 121%. For the same molecule, the viability, T/C [10] was 97.7%, the viability, T/C [11] was 107% and the viability, T/C [12] was 119%. It also gave a viability, T/C [13] of 96.9%, a viability, T/C [14] of 116% and a viability, T/C [15] of 100%. For the same molecule, the viability, T/C [16] was 108%, the viability, T/C [17] was 111% and the viability, T/C [18] was 120%. For the same molecule, the viability, T/C [19] was 106%, the viability, T/C [20] was 111% and the viability, T/C [21] was 109%. The viability, T/C [22] was 111%, the viability, T/C [23] was 127% and the viability, T/C [24] was 116%. It also gave a viability, T/C [25] of 104%, a viability, T/C [26] of 107% and a viability, T/C [27] of 97.9%. It also gave a viability, T/C [28] of 106%, a viability, T/C [29] of 102% and a viability, T/C [30] of 115%. It also gave a viability, T/C [31] of 95.3%, a viability, T/C [32] of 103% and a viability, T/C [33] of 95.5%. For the same molecule, the viability, T/C [34] was 114%, the viability, T/C [35] was 99.6% and the viability, T/C [36] was 93.3%.

With CC(Cn1ccc(-c2ccc(C#N)c(Cl)c2)n1)NC(=O)c1cc(C(C)O)[nH]n1 (centres undefined) + CC(Nc1ncnc2nc[nH]c12)c1cc2cccc(Cl)c2c(=O)n1-c1ccccc1 the IC50 (second compound 0.0316 µM) was over 10 µM, the IC50 (second compound 0.1 µM) was over 10 µM and the IC50 (second compound 0.316 µM) was over 10 µM. For the same molecule, the IC50 (second compound 1 µM) was over 10 µM, the IC50 (second compound 3.16 µM) was over 10 µM and the IC50 (second compound 10 µM) was over 10 µM. For the same molecule, the viability, T/C [1] was 104%, the viability, T/C [2] was 97% and the viability, T/C [3] was 98.8%. It also gave a viability, T/C [4] of 99.6%, a viability, T/C [5] of 105% and a viability, T/C [6] of 109%. For the same molecule, the viability, T/C [7] was 104%, the viability, T/C [8] was 102% and the viability, T/C [9] was 95.3%. It also gave a viability, T/C [10] of 104%, a viability, T/C [11] of 108% and a viability, T/C [12] of 97.7%. It also gave a viability, T/C [13] of 103%, a viability, T/C [14] of 103% and a viability, T/C [15] of 103%. It also gave a viability, T/C [16] of 104%, a viability, T/C [17] of 115% and a viability, T/C [18] of 117%. It also gave a viability, T/C [19] of 102%, a viability, T/C [20] of 111% and a viability, T/C [21] of 100%. For the same molecule, the viability, T/C [22] was 115%, the viability, T/C [23] was 99.6% and the viability, T/C [24] was 113%. It also gave a viability, T/C [25] of 96.3%, a viability, T/C [26] of 101% and a viability, T/C [27] of 112%. It also gave a viability, T/C [28] of 97.1%, a viability, T/C [29] of 109% and a viability, T/C [30] of 104%. The viability, T/C [31] was 93.2%, the viability, T/C [32] was 99% and the viability, T/C [33] was 94.2%. The viability, T/C [34] was 88.2%, the viability, T/C [35] was 91.8% and the viability, T/C [36] was 95.6%.

From PubChem BioAssay AID1963977 (Molecular Pharmacology Branch, DTP, NCI, 2024)
